Data taken from ChEMBL document CHEMBL1201862, “PubChem BioAssay data set” (2004).
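Test compounds were applied to cells in 96-well plates for 48 hours at 5 doses. GI50 is the concentration that inhibits growth by half.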 Active and inactive are the calls of the source. Cut-off read from the data, not from the text of the source: active = GI50 up to about 1.1 µM and inactive = higher.

Tests used:
Assay in all cases: DTP human tumour cell line panel, 48 h
786-0 = tested on: 786-0
CAKI-1 = tested on: CAKI-1
HOP-62 = tested on: HOP-62
HOP-92 = tested on: HOP-92
Hs-578T = tested on: Hs-578T
K562 = tested on: K562
KM12 = tested on: KM12
MCF7 = tested on: MCF7
MDA-MB-435 = tested on: MDA-MB-435
MDA-N = tested on: MDA-N
NCI-H23 = tested on: NCI-H23
SF-539 = tested on: SF-539
SK-MEL-28 = tested on: SK-MEL-28
SK-MEL-2 = tested on: SK-MEL-2
SNB-19 = tested on: SNB-19
SNB-75 = tested on: SNB-75
T47D = tested on: T47D
TK-10 = tested on: TK-10
U-251 = tested on: U-251
UACC-62 = tested on: UACC-62

Measured: GI50

COC(=O)C1[C@H](C(=O)OC)C1(Br)CBr (stereo not given in full)
inactive: 786-0 > 100 µM | CAKI-1 > 100 µM | HOP-62 > 100 µM | HOP-92 > 100 µM | Hs-578T > 100 µM | K562 > 100 µM | KM12 > 100 µM | MCF7 > 100 µM | MDA-MB-435 > 100 µM | MDA-N > 100 µM | NCI-H23 > 100 µM | SF-539 > 100 µM | SK-MEL-28 > 100 µM | SK-MEL-2 > 100 µM | SNB-19 > 100 µM | SNB-75 > 100 µM | T47D > 100 µM | TK-10 > 100 µM | U-251 > 100 µM | UACC-62 > 100 µM

O=C(CNC(=O)OCc1ccccc1)NCCCCC(NC(=O)OCc1ccccc1)C(=O)O (stereo not given)
inactive: 786-0 > 100 µM | CAKI-1 > 100 µM | HOP-62 > 100 µM | HOP-92 > 100 µM | Hs-578T > 100 µM | K562 > 100 µM | KM12 > 100 µM | MCF7 > 100 µM | MDA-MB-435 > 100 µM | MDA-N > 100 µM | NCI-H23 > 100 µM | SF-539 > 100 µM | SK-MEL-28 > 100 µM | SK-MEL-2 > 100 µM | SNB-19 > 100 µM | SNB-75 > 100 µM | T47D > 100 µM | TK-10 > 100 µM | U-251 > 100 µM | UACC-62 > 100 µM

N#CC(C#N)=Cc1c[nH]c(=O)[nH]c1=O
inactive: 786-0 > 100 µM | CAKI-1 > 100 µM | HOP-62 > 100 µM | HOP-92 > 100 µM | Hs-578T > 100 µM | K562 > 100 µM | KM12 > 100 µM | MCF7 > 100 µM | MDA-MB-435 > 100 µM | MDA-N > 100 µM | NCI-H23 > 100 µM | SF-539 > 100 µM | SK-MEL-28 > 100 µM | SK-MEL-2 > 100 µM | SNB-19 > 100 µM | SNB-75 > 100 µM | T47D > 100 µM | TK-10 > 100 µM | U-251 > 100 µM | UACC-62 > 100 µM

O=C(/C=C/c1ccc(O)c(O)c1)O[C@H]1CCCC[C@@H]1OC(=O)/C=C/c1ccc(O)c(O)c1
inactive: 786-0 7.48 µM | CAKI-1 7.48 µM | HOP-62 9.77 µM | HOP-92 8.93 µM | Hs-578T 29.9 µM | K562 7.57 µM | KM12 20.7 µM | MCF7 19.2 µM | MDA-MB-435 8.83 µM | MDA-N 8.87 µM | NCI-H23 13.6 µM | SF-539 11.1 µM | SK-MEL-28 15.8 µM | SK-MEL-2 22.7 µM | SNB-19 12.3 µM | SNB-75 17.8 µM | T47D 16.2 µM | TK-10 14.9 µM | U-251 14.8 µM | UACC-62 8.09 µM

CCOC(=O)C1=CN/C(=C(/C)C(=O)OC)SC1C(=O)OCC (stereo not given)
inactive: 786-0 > 100 µM | CAKI-1 > 100 µM | HOP-62 > 100 µM | HOP-92 > 76.9 µM | Hs-578T > 100 µM | K562 17.5 µM | KM12 > 100 µM | MCF7 > 93.5 µM | MDA-MB-435 > 100 µM | MDA-N > 100 µM | NCI-H23 > 100 µM | SF-539 > 100 µM | SK-MEL-28 > 100 µM | SK-MEL-2 > 100 µM | SNB-19 98.2 µM | SNB-75 > 100 µM | T47D 57.9 µM | TK-10 > 92.9 µM | U-251 > 100 µM | UACC-62 > 100 µM

CC1(C)CCC[C@@]2(C)C1CC[C@@]1(CO1)[C@@H]2/C=C\C(C=O)CC=O (stereo not given in full)
inactive: 786-0 > 75.3 µM | CAKI-1 > 100 µM | HOP-62 > 100 µM | HOP-92 > 100 µM | Hs-578T > 100 µM | K562 26.5 µM | KM12 > 67.9 µM | MCF7 > 100 µM | MDA-MB-435 > 100 µM | MDA-N > 87.9 µM | NCI-H23 > 100 µM | SF-539 > 87.3 µM | SK-MEL-28 > 100 µM | SK-MEL-2 > 100 µM | SNB-19 > 100 µM | SNB-75 > 80.5 µM | T47D 99.3 µM | TK-10 > 100 µM | U-251 > 96.6 µM | UACC-62 > 100 µM

CCCCCCc1ccc(C(=O)NO)cc1
inactive: 786-0 13.7 µM | CAKI-1 28.1 µM | HOP-62 34.2 µM | HOP-92 48 µM | Hs-578T > 100 µM | K562 24.5 µM | KM12 44.9 µM | MCF7 59.3 µM | MDA-MB-435 53.5 µM | MDA-N 45.6 µM | NCI-H23 28.3 µM | SF-539 49.8 µM | SK-MEL-28 56.5 µM | SK-MEL-2 44.9 µM | SNB-19 45.3 µM | SNB-75 42.9 µM | T47D 19.5 µM | TK-10 51.5 µM | U-251 38.8 µM | UACC-62 24.9 µM

C[C@]12C[C@H](O)[C@H]3[C@@H](CCC4=CC(=O)CC[C@@]43C)[C@@H]1CC[C@@H]2c1csc(-c2ccccc2)n1
inactive: 786-0 25.2 µM | CAKI-1 38.4 µM | HOP-62 9.53 µM | HOP-92 27.8 µM | Hs-578T 30.1 µM | K562 1.52 µM | KM12 > 46.7 µM | MCF7 > 23 µM | MDA-MB-435 > 46.3 µM | MDA-N > 80.7 µM | NCI-H23 4.57 µM | SF-539 62.5 µM | SK-MEL-28 > 100 µM | SK-MEL-2 > 34 µM | SNB-19 29.6 µM | SNB-75 26.4 µM | T47D 3.15 µM | TK-10 26.1 µM | U-251 24.9 µM | UACC-62 29.4 µM
